# Target: human TRPA1 (Homo sapiens (Human), UniProt O75762)
# Assay: hTRPA1 CHO Ca2+ AUC EVO (IC50); FLIPR Tetra block of cinnamaldehyde induced calcium influx
# Format: cell-based
# Conditions: Table 3; CHO cells expressing TRPA1; 75 uM cinnamaldehyde (~EC80) as agonist
# Experimental: IC50 ([…]) of compounds on the human and rat TRPA1 channels were determined using a FLIPR Tetra instrument. CHO cells expressing TRPA1 were plated into 384-well plates, incubated overnight at 37° C., and loaded with BD calcium indicator dye for 1 hr at 37° C. followed by 15 minutes. at room temperature. The assay buffer was Hank's Balanced Salt Solution (HBSS) containing 20 mM HEPES (pH readjusted to 7.4) along with 0.02% BSA.
# Following dye load and plate cool down, compounds were added to the cells using FLIPR Tetra. Plates were then incubated with compounds for 20 minutes at room temperature prior to adding agonist. Following this incubation, ˜EC80 concentration of cinnamaldehyde (75 uM for human TRPA1 and 45 uM for rat TRPA1) was added to active the channels and block of cinnamaldehyde induced calcium influx was measured.
# IC50 values were fit with a standard Hill function, keeping the Hill coefficient (n) fixed to 1.5. Fixing the Hill coefficient will generally reduce variability of the IC50 determination. The IC50 values were individually examined to make sure the MIN and MAX points were set correctly prior to validation of the results.
# human TRPA1, sequence (O75762 whole entry): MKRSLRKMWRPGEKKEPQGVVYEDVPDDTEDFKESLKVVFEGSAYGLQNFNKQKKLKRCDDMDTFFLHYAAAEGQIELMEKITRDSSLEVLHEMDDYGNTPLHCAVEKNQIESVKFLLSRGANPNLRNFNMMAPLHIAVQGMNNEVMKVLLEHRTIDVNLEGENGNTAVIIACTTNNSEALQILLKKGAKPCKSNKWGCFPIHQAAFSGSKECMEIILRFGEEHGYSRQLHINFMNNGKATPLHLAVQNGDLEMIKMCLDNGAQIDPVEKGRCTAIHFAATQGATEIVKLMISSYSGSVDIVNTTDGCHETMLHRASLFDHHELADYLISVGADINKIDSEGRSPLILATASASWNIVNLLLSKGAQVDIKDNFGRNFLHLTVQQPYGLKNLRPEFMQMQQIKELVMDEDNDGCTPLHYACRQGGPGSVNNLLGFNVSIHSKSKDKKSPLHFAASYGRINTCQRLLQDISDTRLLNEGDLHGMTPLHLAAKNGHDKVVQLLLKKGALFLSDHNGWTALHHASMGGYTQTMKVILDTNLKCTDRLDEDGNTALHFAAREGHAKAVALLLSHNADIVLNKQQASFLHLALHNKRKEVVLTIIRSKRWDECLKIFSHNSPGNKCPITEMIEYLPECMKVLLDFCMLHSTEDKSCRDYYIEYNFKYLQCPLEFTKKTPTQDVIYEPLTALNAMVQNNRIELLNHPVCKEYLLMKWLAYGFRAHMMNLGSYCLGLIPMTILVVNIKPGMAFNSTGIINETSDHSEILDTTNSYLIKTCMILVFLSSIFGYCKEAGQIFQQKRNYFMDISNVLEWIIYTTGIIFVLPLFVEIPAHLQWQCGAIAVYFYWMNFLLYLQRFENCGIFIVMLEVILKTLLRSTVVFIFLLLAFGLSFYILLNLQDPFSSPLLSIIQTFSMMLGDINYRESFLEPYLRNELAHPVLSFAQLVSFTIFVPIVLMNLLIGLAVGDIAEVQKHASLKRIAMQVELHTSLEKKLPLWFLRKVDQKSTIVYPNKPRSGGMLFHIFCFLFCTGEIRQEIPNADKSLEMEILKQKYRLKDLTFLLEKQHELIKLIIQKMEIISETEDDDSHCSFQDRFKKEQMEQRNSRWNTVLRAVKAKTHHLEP
row,Compound,IC50
1,"O=C(NCc1cc(-c2cnc(C(F)(F)F)nc2)ncc1OC(F)(F)F)[C@@H]1C2CC(C2)N1S(=O)(=O)c1ccc(F)cc1 [compound 15, (2S)-3-(4-fluorophenyl)sulfonyl-N-[[5-(trifluoromethoxy)-2-[2-(trifluoromethyl)pyrimidin-5-yl]-4-pyridyl]methyl]-3-azabicyclo[2.1.1]hexane-2-carboxamide]",2.77 nM
2,"O=C(NCc1cc(-c2cnc(C(F)(F)F)nc2)ccc1F)[C@@H]1C2CC(C2)N1S(=O)(=O)c1ccc(F)cc1 [compound 16, (2S)-3-(4-fluorophenyl)sulfonyl-N-[[2-fluoro-5-[2-(trifluoromethyl)pyrimidin-5-yl]phenyl]methyl]-3-azabicyclo[2.1.1]hexane-2-carboxamide]",9.89 nM
3,"O=C(NCc1cc(-c2ccc(C(F)(F)F)nc2)ccc1F)[C@@H]1C2CC(C2)N1S(=O)(=O)c1ccc(F)cc1 [compound 17, (2S)-3-(4-fluorophenyl)sulfonyl-N-[[2-fluoro-5-[6-(trifluoromethyl)-3-pyridyl]phenyl]methyl]-3-azabicyclo[2.1.1]hexane-2-carboxamide]",6.06 nM
4,"Cn1nc(C(F)(F)F)cc1-c1ccc(F)c(CNC(=O)[C@@H]2C3CC(C3)N2S(=O)(=O)c2ccc(F)cc2)c1 [compound 18, (2S)-N-[[2-fluoro-5-[2-methyl-5-(trifluoromethyl)pyrazol-3-yl]phenyl]methyl]-3-(4-fluorophenyl)sulfonyl-3-azabicyclo[2.1.1]hexane-2-carboxamide]",15.7 nM
5,"O=C(NCc1cc(F)cc(-c2cnc(C(F)(F)F)nc2)c1)[C@@H]1C2CC(C2)N1S(=O)(=O)c1ccc(F)cc1 [compound 19, (2S)-3-(4-fluorophenyl)sulfonyl-N-[[3-fluoro-5-[2-(trifluoromethyl)pyrimidin-5-yl]phenyl]methyl]-3-azabicyclo[2.1.1]hexane-2-carboxamide]",8.97 nM
6,"O=C(NCc1cc(F)cc(-c2ccc(C(F)(F)F)nc2)c1)[C@@H]1C2CC(C2)N1S(=O)(=O)c1ccc(F)cc1 [compound 20, (2S)-3-(4-fluorophenyl)sulfonyl-N-[[3-fluoro-5-[6-(trifluoromethyl)-3-pyridyl]phenyl]methyl]-3-azabicyclo[2.1.1]hexane-2-carboxamide]",6.11 nM
7,"Cn1nc(C(F)(F)F)cc1-c1cc(F)cc(CNC(=O)[C@@H]2C3CC(C3)N2S(=O)(=O)c2ccc(F)cc2)c1 [compound 21, (2S)-N-[[3-fluoro-5-[2-methyl-5-(trifluoromethyl)pyrazol-3-yl]phenyl]methyl]-3-(4-fluorophenyl)sulfonyl-3-azabicyclo[2.1.1]hexane-2-carboxamide]",27.6 nM
8,"O=C(NCc1cn(-c2cnc(C(F)(F)F)nc2)nc1C(F)(F)F)[C@@H]1C2CC(C2)N1S(=O)(=O)c1ccc(F)cc1 [compound 29, (2S)-3-(4-fluorophenyl)sulfonyl-N-[[3-(trifluoromethyl)-1-[2-(trifluoromethyl)pyrimidin-5-yl]pyrazol-4-yl]methyl]-3-azabicyclo[2.1.1]hexane-2-carboxamide]",4.84 nM
9,"O=C(NCc1cc(-c2cnc(C(F)(F)F)nc2)nc(C(F)(F)F)n1)[C@@H]1C2CC(C2)N1S(=O)(=O)c1ccc(F)cc1 [compound 30, (2S)-3-(4-fluorophenyl)sulfonyl-N-[[2-(trifluoromethyl)-6-[2-(trifluoromethyl)pyrimidin-5-yl]pyrimidin-4-yl]methyl]-3-azabicyclo[2.1.1]hexane-2-carboxamide]",1.18 nM
10,"O=C(NCc1cc(-c2cnc(C(F)(F)F)nc2)ncc1C(F)(F)F)[C@@H]1C2CC(C2)N1S(=O)(=O)c1cc2cc(F)ccc2o1 [compound 31, (2S)-3-(5-fluorobenzofuran-2-yl)sulfonyl-N-[[5-(trifluoromethyl)-2-[2-(trifluoromethyl)pyrimidin-5-yl]-4-pyridyl]methyl]-3-azabicyclo[2.1.1]hexane-2-carboxamide]",1.85 nM
11,"O=C(NCc1cc(-c2cnc(C(F)(F)F)nc2)cc(C2CC2)n1)[C@@H]1C2CC(C2)N1S(=O)(=O)c1ccc(F)cc1 [compound 32, (2S)-N-[[6-cyclopropyl-4-[2-(trifluoromethyl)pyrimidin-5-yl]-2-pyridyl]methyl]-3-(4-fluorophenyl)sulfonyl-3-azabicyclo[2.1.1]hexane-2-carboxamide]",7.24 nM
12,"O=C(NCc1cc(-c2cnc(C(F)(F)F)nc2)nc(C2CC2)c1)[C@@H]1C2CC(C2)N1S(=O)(=O)c1ccc(F)cc1 [compound 33, (2S)-N-[[2-cyclopropyl-6-[2-(trifluoromethyl)pyrimidin-5-yl]-4-pyridyl]methyl]-3-(4-fluorophenyl)sulfonyl-3-azabicyclo[2.1.1]hexane-2-carboxamide]",3.55 nM
13,"COc1nn(-c2cnc(C(F)(F)F)nc2)cc1CNC(=O)[C@@H]1C2CC(C2)N1S(=O)(=O)c1ccc(F)cc1 [compound 34, (2S)-3-(4-fluorophenyl)sulfonyl-N-[[3-methoxy-1-[2-(trifluoromethyl)pyrimidin-5-yl]pyrazol-4-yl]methyl]-3-azabicyclo[2.1.1]hexane-2-carboxamide]",19.1 nM
14,"O=C(NCc1cc(-c2cnc(C(F)(F)F)nc2)nc(OCC(F)(F)F)n1)[C@@H]1C2CC(C2)N1S(=O)(=O)c1ccc(F)cc1 [compound 35, (2S)-3-(4-fluorophenyl)sulfonyl-N-[[2-(2,2,2-trifluoroethoxy)-6-[2-(trifluoromethyl)pyrimidin-5-yl]pyrimidin-4-yl]methyl]-3-azabicyclo[2.1.1]hexane-2-carboxamide]",4.24 nM
